Assay results: paper PMC10722499, “Consumption of Roasted Coffee Leads to Conjugated Metabolites of Atractyligenin in Human Plasma” (Journal of Agricultural and Food Chemistry, 2023)
Where two headings read alike, the source gives them in different places.

How the values were obtained:
[1] = Human coffee intervention study: plasma concentrations after roasted coffee brew by UPLC-MS/MS; assay type: in vivo; settings: for plasma level at baseline / concentration at 0 h: 0 h; for plasma level at baseline: before coffee intake; for samples above the LLOQ / study participants in whom the conjugate appeared within 10 h after coffee: n = 10; for concentration at 1 h / concentration at 10 h / concentration at 4 h / concentration at 0 h: human, plasma, 200 mL; for concentration at 1 h / concentration at 10 h / Cmax / concentration at 4 h / concentration at 0 h: oral; for Cmax / time of estimated cmax: human plasma after coffee brew (200 mL); for Cmax: n = 10, mean ± SD, read-out: estimated cmax in plasma; for time of estimated cmax: sampling only at 0, 1, 4, 10 h
Experimental: The study included ten volunteers (5 females, 5 males) (age: 28.3 ± 2.3 years; BMI: 21.89 ± 2.22 kg/m^2). The intervention study took place from November 5, 2021, to February 17, 2022, in the core facility human studies of the ZIEL Institute for Food and Health of the Technical University of Munich. The study was performed in agreement with the Declaration of Helsinki, and all participants gave written informed consent. The study was approved by the Ethics Committee of the Technical University of Munich (5798/13 S-SR) and registered in the German Register of Clinical Studies (DRKS00005083).
The study participants underwent a dietary protocol that excluded all forms of coffee consumption. Additionally, chocolate, black/green/white, mate tea, cola, energy drinks, and beauty products containing caffeine (e.g., shampoos, creams) were prohibited 1 week before the test day. Furthermore, the study participants received a standardized meal the evening before the test day. The meal was composed of pasta, margarine, and salt, and the amount of energy was calculated based on the participant’s basal energy demand. On the morning of the test day, the participants were in a fastened state and received water (control samples) or coffee brew (coffee intervention) as breakfast. Blood was sampled before coffee intake (0 h) and at defined time points (1, 4, and 10 h) after coffee intake. 6 h after the coffee intake, the participants received lunch, the same standardized meal as the previous dinner. The administered coffee was prepared from a coffee capsule (Nespresso, ROMA) with 100 mL water. The administered volume of the coffee brew was 200 mL. Based on the coffee powder per capsule ([…]), the concentrations of 2 (2.8 μmol/g) and 3 (1.1 μmol/g), respectively,[10] and an estimated extraction rate of 100%, the total ingested amounts were 33.6 μmol (2) and 13.2 μmol (3).
In an Eppendorf tube (1.5 mL), aliquots (50 μL each) of the calibration standard, sample, or QC, respectively, were mixed with the IS solution (1000 nM in ethanol, 50 μL) and acetonitrile/ethanol (9 + 1, v + v, 50 μL) was added. After vortexing, suspensions were cleared by centrifugation (12,000 rpm, 4 °C, 10 min), and the supernatant (∼100 μL) was transferred to an HPLC vial with 200 μL insert for analysis (5 μL injection).
The UPLC–MS/MS system consisted of a Shimadzu Nexera X2 UPLC system (Shimadzu, Duisburg, Germany) hyphenated to a QTrap 5500 MS/MS system (Sciex, Darmstadt, Germany) operating in negative electrospray (ESI^–) mode with the following ion source parameters: ion spray voltage: −4500 V; source temperature: 500 °C; nebulizer gas: 55 psi; heater gas: 65 psi; and curtain gas: 35 psi. The MS/MS parameters, including the collision cell entrance potential (CEP), declustering potential (DP), collision energy (CE), and cell exit potential (CXP), were tuned for each compound and mass transition and are summarized in Supporting Table S3. The dwell time for each compound was 30 ms, and the total cycle time was 0.75 s. Chromatographic separation was achieved on a C18 column (Kinetex C18, 100 mm × 2.1 mm, 1.7 μm, Phenomenex, Aschaffenburg, Germany) at a flow rate of 500 μL/min flow rate. Eluent A was 0.1% formic acid in water, and eluent B was 0.1% formic acid in acetonitrile. B was kept at 3% (1 min), increased to 25% (in 3 min), 90% (in 2 min, 1 min isocratic), and 3% (0.5 min, 2.5 min isocratic). The total time of the analysis was 10 min. The column effluent was introduced from the waste to the MS/MS system between 3 and 7 min.
We applied this method to human plasma samples from a coffee intervention study to investigate the appearance of coffee compounds 1–3 and metabolites M1–M3. Ten participants underwent a washout period (7 days) and then consumed one dose of […]. Blood samples were taken at baseline (0 h) and 1, 4, and 10 h after the intervention. […]

[2] = set-up: method as in PMID 36442242; settings: coffee drinkers' urine, four of six samples, qualitative; cited from earlier work
[3] = both sexes, 1 h after coffee brew (200 mL), human plasma, values above LLOQ, read-out: plasma concentration, mean ± SD
[4] = both sexes, 10 h after coffee brew (200 mL), human plasma, values above LLOQ, read-out: plasma concentration, mean ± SD
[5] = participant ayia, 1 h after coffee, read-out: plasma concentration, individual
[6] = participant ayia, 10 h after coffee, read-out: plasma concentration, individual
[7] = participant cbdu, 1 h after coffee, b = below LLOQ, read-out: plasma concentration, individual
[8] = participant cbdu, 10 h after coffee, read-out: plasma concentration, individual
[9] = participant eogo, 10 h after coffee, b = below LLOQ, read-out: plasma concentration, individual
[10] = participant ggot, 1 h after coffee, read-out: plasma concentration, individual
[11] = participant ggot, 10 h after coffee, b = below LLOQ, read-out: plasma concentration, individual
[12] = participant imhz, 10 h after coffee, read-out: plasma concentration, individual
[13] = participant mgjj, 10 h after coffee, read-out: plasma concentration, individual
[14] = participant wbqj, 1 h after coffee, b = below LLOQ, read-out: plasma concentration, individual
[15] = participant wbqj, 10 h after coffee, b = below LLOQ, read-out: plasma concentration, individual
[16] = participant wbvs, 10 h after coffee, read-out: plasma concentration, individual
[17] = both sexes, 4 h after coffee brew (200 mL), human plasma, values above LLOQ, read-out: plasma concentration, mean ± SD
[18] = participant eogo, 1 h after coffee, b = below LLOQ, read-out: plasma concentration, individual
[19] = participant ggot, 4 h after coffee, b = below LLOQ, read-out: plasma concentration, individual
[20] = participant rrmk, 4 h after coffee, b = below LLOQ, read-out: plasma concentration, individual
[21] = participant rrmk, 10 h after coffee, read-out: plasma concentration, individual
[22] = participant wbqj, 4 h after coffee, b = below LLOQ, read-out: plasma concentration, individual
[23] = participant wbvs, 1 h after coffee, read-out: plasma concentration, individual
[24] = participant wbvs, 4 h after coffee, read-out: plasma concentration, individual
[25] = participant xrwz, 10 h after coffee, b = below LLOQ, read-out: plasma concentration, individual

SMILES	plasma level at baseline ([1]; human plasma)	samples above the LLOQ ([1]; 10 h after coffee)	concentration at 1 h [1, 3]	concentration at 10 h [1, 4]	Cmax ([1]; both sexes)	time of estimated cmax [1]	study participants in whom the conjugate appeared within 10 h after coffee ([1]; human plasma)	concentration at 1 h [1, 5]	concentration at 10 h [1, 6]	concentration at 1 h [1, 7]	concentration at 10 h [1, 8]	concentration at 10 h [1, 9]	concentration at 1 h [1, 10]	concentration at 10 h [1, 11]	concentration at 10 h [1, 12]	concentration at 10 h [1, 13]	concentration at 1 h [1, 14]	concentration at 10 h [1, 15]	concentration at 10 h [1, 16]	urine samples in which detected [2]	also measured
CC1C(=O)C23CCC4C(C(=O)OC5OC(C(=O)O)C(O)C(O)C5O)CC(O)CC4(C)C2CCC1C3 [M2, 2β-hydroxy-15-oxoatractylan-4α-carboxy-19-O-β-D-glucuronide]	below the LLOQ	80%	0.63 ± 0.14 nM	2.5 ± 1.9 nM	2.5 ± 1.9 nM	10 h	80%	0.5 nM	5.6 nM	0.1 nM	0.9 nM	3.1 nM	0.7 nM	0.6 nM	1.1 nM	0.8 nM	0.01 nM	2.8 nM	5.1 nM	67%	plasma concentration, mean ± SD ([1]; 1 h after coffee brew (200 mL), human plasma, values above LLOQ): 0.6 ± 0.1 nM; concentration at 4 h ([1]; participant ayia, 4 h after coffee, b = below LLOQ, read-out: plasma concentration, individual): 0.1 nM; concentration at 0 h ([1]; participant rrmk, b = below LLOQ, read-out: plasma concentration, individual): 0.1 nM
CC1C(=O)C23CCC4C(C(=O)O)CC(OC5OC(C(=O)O)C(O)C(O)C5O)CC4(C)C2CCC1C3 [M3, 2β-hydroxy-15-oxoatractylan-4α-carboxylic acid-2-O-β-D-glucuronide]	below the LLOQ	90%	1.7 nM	55 ± 57.7 nM	55 ± 57.7 nM	10 h	90%				11.6 nM	40.8 nM		180 nM	9.3 nM	24.3 nM		64.1 nM	111 nM	67%	plasma concentration in samples from two individuals ([1]; 10 h after coffee, comparatively high individual values): 180.0 nM; concentration at 4 h [1, 17]: 1.3 ± 1.1 nM; concentration at 10 h ([1]; 10 h after coffee, comparatively high individual values, read-out: plasma concentration in samples from two individuals): 111 nM; concentration at 0 h ([1]; participant eogo, b = below LLOQ, read-out: plasma concentration, individual): 0.4 nM; concentration at 1 h [1, 18]: 0.3 nM; concentration at 4 h ([1]; participant eogo, 4 h after coffee, b = below LLOQ, read-out: plasma concentration, individual): 0.1 nM; concentration at 4 h [1, 19]: 2.9 nM; concentration at 4 h [1, 20]: 0.7 nM; concentration at 10 h [1, 21]: 50.6 nM; concentration at 4 h [1, 22]: 0.9 nM; concentration at 0 h ([1]; participant wbvs, b = below LLOQ, read-out: plasma concentration, individual): 0.9 nM; concentration at 1 h [1, 23]: 1.7 nM; concentration at 4 h [1, 24]: 1.9 nM; concentration at 10 h [1, 25]: 4.1 nM
C=C1[C@@H]2CC[C@@H]3[C@@](CCC4[C@H](C(=O)O)C[C@@H](O)C[C@]43C)(C2)[C@@H]1O (some centres unmarked) [compound 1, atractyligenin]			41.9 ± 12.5 nM	23.3 ± 10.5 nM	41.9 ± 12.5 nM	1 h		36.5 nM	25.6 nM	31.6 nM	19 nM	8 nM	49.2 nM	2.3 nM	43.7 nM	16.5 nM	49.1 nM	4.7 nM	17 nM		concentration at 4 h [1, 17]: 40.1 ± 22.9 nM; drop of plasma concentration until 10 h ([1]; from the level between 1 and 4 h to 10 h after coffee): ~45%; concentration at 1 h [1, 18]: 43.4 nM; concentration at 4 h [1, 19]: 13.8 nM; concentration at 1 h ([1]; participant imhz, 1 h after coffee, read-out: plasma concentration, individual): 70.5 nM; concentration at 4 h ([1]; participant imhz, 4 h after coffee, read-out: plasma concentration, individual): 19.6 nM; concentration at 1 h ([1]; participant mgjj, 1 h after coffee, read-out: plasma concentration, individual): 34.7 nM; concentration at 4 h ([1]; participant mgjj, 4 h after coffee, read-out: plasma concentration, individual): 17.7 nM; concentration at 1 h ([1]; participant rrmk, 1 h after coffee, read-out: plasma concentration, individual): 42.7 nM; concentration at 4 h [1, 20]: 68.1 nM; concentration at 10 h [1, 21]: 17.9 nM; concentration at 4 h [1, 22]: 59.7 nM; concentration at 1 h [1, 23]: 36.1 nM; concentration at 4 h [1, 24]: 35.2 nM; concentration at 1 h ([1]; participant xrwz, 1 h after coffee, read-out: plasma concentration, individual): 26 nM; concentration at 10 h [1, 25]: 10.4 nM; participants in whom plasma concentration increased between 4 and 10 h ([1]; individual plots, after first maximum at 1 h): 60%
CC1C(=O)C23CCC4C(C(=O)O)CC(O)CC4(C)C2CCC1C3 (stereo not drawn) [compound 5, 2β-hydroxy-15-oxoatractylan-4α-carboxylic acid]																					appearance in plasma after coffee ([1]; all samples 1, 4, 10 h after coffee brew (200 mL), human plasma): did not appear in the plasma
